# Data published in the supplement of paper PMC10307832.
# Experiments:
# Assay in all cases: relative viability (nuclei count vs DMSO), 5 days (fraction); higher = more cells survive
# 201T = test system: 201T
# In short: (§1)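 The day after seeding in 1536-well plates, lung cancer cell lines were treated by pin tool with a single drug, or with a fixed anchor-drug dose together with five library-drug doses (not always all listed) in √10 steps. After 5 days, a combined fix-and-stain solution (final 0.05% Triton X-100, 1% formaldehyde, 1 ug/ml Hoechst) was added. Nuclei counted on 4× images gave relative viability as treated counts over vehicle counts, reported as the median of duplicate plates.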
# BEN = test system: BEN
# In short: as §1
# COR-L 105 = test system: COR-L 105
# In short: as §1
# EKVX = test system: EKVX
# In short: as §1
# EPLC-272H = test system: EPLC-272H
# In short: as §1
# H3255 = test system: H3255
# In short: as §1
# HCC-44 = test system: HCC-44
# In short: as §1
# HCC-827 = test system: HCC-827
# In short: as §1
# LCLC-97TM1 = test system: LCLC-97TM1
# In short: as §1
# LOU-NH91 = test system: LOU-NH91
# In short: as §1
# LU99A = test system: LU99A
# In short: as §1
# NCI-H1437 = test system: NCI-H1437
# In short: as §1
# NCI-H1666 = test system: NCI-H1666
# In short: as §1
# NCI-H1975 = test system: NCI-H1975
# In short: as §1
# NCI-H2085 = test system: NCI-H2085
# In short: as §1
# NCI-H2087 = test system: NCI-H2087
# In short: as §1
# NCI-H647 = test system: NCI-H647
# In short: as §1
# NCI-H650 = test system: NCI-H650
# In short: as §1
# PC-3 [JPC-3] = test system: PC-3 [JPC-3]
# In short: as §1
# SW 1573 = test system: SW 1573
# In short: as §1
compound,measurement,setting,value
COc1cc2nccc(Oc3ccc(NC(=O)Nc4cc(C)on4)c(Cl)c3)c2cc1OC [Tivozanib] + C[C@]1(O)C[C@@H](c2nc(-c3ccc4ccc(-c5ccccc5)nc4c3)c3c(N)nccn32)C1 [Linsitinib] (partner 1 µM),relative viability,201T; first compound 0.005 µM,1.1
same,relative viability,201T; first compound 0.01581 µM,0.984
same,relative viability,201T; first compound 0.05 µM,1.06
same,relative viability,201T; first compound 0.1581 µM,0.937
same,relative viability,201T; first compound 0.5 µM,1.02
same,relative viability,BEN; first compound 0.005 µM,0.995
same,relative viability,BEN; first compound 0.01581 µM,0.871
same,relative viability,BEN; first compound 0.05 µM,0.984
same,relative viability,BEN; first compound 0.5 µM,0.912
same,relative viability,COR-L 105; first compound 0.01581 µM,1.25
same,relative viability,COR-L 105; first compound 0.05 µM,1.02
same,relative viability,COR-L 105; first compound 0.1581 µM,1.02
same,relative viability,COR-L 105; first compound 0.5 µM,0.904
same,relative viability,EKVX; first compound 0.005 µM,0.95
same,relative viability,EKVX; first compound 0.01581 µM,0.931
same,relative viability,EKVX; first compound 0.05 µM,1.07
same,relative viability,EKVX; first compound 0.1581 µM,1.07
same,relative viability,EKVX; first compound 0.5 µM,1.09
same,relative viability,EPLC-272H; first compound 0.005 µM,1.1
same,relative viability,EPLC-272H; first compound 0.01581 µM,1.14
same,relative viability,EPLC-272H; first compound 0.05 µM,1.17
same,relative viability,EPLC-272H; first compound 0.1581 µM,0.955
same,relative viability,EPLC-272H; first compound 0.5 µM,1.12
same,relative viability,H3255; first compound 0.005 µM,0.965
same,relative viability,H3255; first compound 0.01581 µM,0.933
same,relative viability,H3255; first compound 0.05 µM,1.09
same,relative viability,H3255; first compound 0.1581 µM,1.05
same,relative viability,H3255; first compound 0.5 µM,0.891
same,relative viability,HCC-44; first compound 0.005 µM,0.66
same,relative viability,HCC-44; first compound 0.01581 µM,0.687
same,relative viability,HCC-44; first compound 0.05 µM,0.641
same,relative viability,HCC-44; first compound 0.1581 µM,0.679
same,relative viability,HCC-44; first compound 0.5 µM,0.685
same,relative viability,HCC-827; first compound 0.005 µM,0.969
same,relative viability,HCC-827; first compound 0.01581 µM,0.942
same,relative viability,HCC-827; first compound 0.05 µM,0.944
same,relative viability,HCC-827; first compound 0.1581 µM,1.04
same,relative viability,HCC-827; first compound 0.5 µM,0.965
same,relative viability,LCLC-97TM1; first compound 0.005 µM,0.154
same,relative viability,LCLC-97TM1; first compound 0.01581 µM,0.179
same,relative viability,LCLC-97TM1; first compound 0.1581 µM,0.187
same,relative viability,LCLC-97TM1; first compound 0.5 µM,0.178
same,relative viability,LOU-NH91; first compound 0.005 µM,0.934
same,relative viability,LOU-NH91; first compound 0.01581 µM,0.941
same,relative viability,LOU-NH91; first compound 0.05 µM,0.981
same,relative viability,LOU-NH91; first compound 0.1581 µM,0.933
same,relative viability,LOU-NH91; first compound 0.5 µM,1
same,relative viability,LU99A; first compound 0.005 µM,0.517
same,relative viability,LU99A; first compound 0.01581 µM,0.506
same,relative viability,LU99A; first compound 0.05 µM,0.581
same,relative viability,LU99A; first compound 0.5 µM,0.534
same,relative viability,NCI-H1437; first compound 0.005 µM,1.02
same,relative viability,NCI-H1437; first compound 0.01581 µM,0.989
same,relative viability,NCI-H1437; first compound 0.05 µM,0.969
same,relative viability,NCI-H1437; first compound 0.1581 µM,0.947
same,relative viability,NCI-H1437; first compound 0.5 µM,1
same,relative viability,NCI-H1666; first compound 0.005 µM,0.748
same,relative viability,NCI-H1666; first compound 0.01581 µM,0.856
same,relative viability,NCI-H1666; first compound 0.05 µM,0.975
same,relative viability,NCI-H1666; first compound 0.1581 µM,0.783
same,relative viability,NCI-H1666; first compound 0.5 µM,0.876
same,relative viability,NCI-H1975; first compound 0.005 µM,0.976
same,relative viability,NCI-H1975; first compound 0.01581 µM,0.893
same,relative viability,NCI-H1975; first compound 0.05 µM,0.956
same,relative viability,NCI-H1975; first compound 0.1581 µM,0.784
same,relative viability,NCI-H1975; first compound 0.5 µM,0.916
same,relative viability,NCI-H2085; first compound 0.005 µM,0.917
same,relative viability,NCI-H2085; first compound 0.01581 µM,0.854
same,relative viability,NCI-H2085; first compound 0.05 µM,1.06
same,relative viability,NCI-H2085; first compound 0.1581 µM,0.781
same,relative viability,NCI-H2085; first compound 0.5 µM,0.877
same,relative viability,NCI-H2087; first compound 0.005 µM,0.928
same,relative viability,NCI-H2087; first compound 0.01581 µM,0.922
same,relative viability,NCI-H2087; first compound 0.05 µM,0.926
same,relative viability,NCI-H2087; first compound 0.1581 µM,1.04
same,relative viability,NCI-H2087; first compound 0.5 µM,0.81
same,relative viability,NCI-H647; first compound 0.005 µM,1.08
same,relative viability,NCI-H647; first compound 0.01581 µM,1.09
same,relative viability,NCI-H647; first compound 0.05 µM,1.26
same,relative viability,NCI-H647; first compound 0.1581 µM,1.21
same,relative viability,NCI-H647; first compound 0.5 µM,1.18
same,relative viability,NCI-H650; first compound 0.005 µM,0.671
same,relative viability,NCI-H650; first compound 0.01581 µM,0.992
same,relative viability,NCI-H650; first compound 0.05 µM,0.859
same,relative viability,NCI-H650; first compound 0.1581 µM,0.736
same,relative viability,NCI-H650; first compound 0.5 µM,0.542
same,relative viability,PC-3 [JPC-3]; first compound 0.005 µM,0.903
same,relative viability,PC-3 [JPC-3]; first compound 0.01581 µM,0.921
same,relative viability,PC-3 [JPC-3]; first compound 0.05 µM,1
same,relative viability,PC-3 [JPC-3]; first compound 0.1581 µM,1.01
same,relative viability,PC-3 [JPC-3]; first compound 0.5 µM,0.915
same,relative viability,SW 1573; first compound 0.005 µM,0.896
same,relative viability,SW 1573; first compound 0.01581 µM,0.826
same,relative viability,SW 1573; first compound 0.05 µM,0.921
same,relative viability,SW 1573; first compound 0.1581 µM,0.819
same,relative viability,SW 1573; first compound 0.5 µM,0.86
